Read-outs that look alike come from different tables or passages of the source. Numbered stars: 1 amine (or outer) side, 2 acyl side, 3 side chain; on linkers, the order of the positions; unused ones are H or OH. Bridge positions count the residues as written; N and C are the ends. Side chains are listed from the residue outwards. Peptide text beside a SMILES is read from it. * marks the point of attachment. C20 diacid = O=C(O)CCCCCCCCCCCCCCCCCCC(=O)*; γGlu = O=C(O)[C@H](CCC(=O)[*:2])N[*:1]; AEEA = NCCOCCOCC(=O)O
Tests used:
[1] = target: T1, rat amylin receptor (rat calcitonin receptor + rat RAMP 3) (Rattus norvegicus, UniProt P32214+Q9JJ73); assay: ASSAY (VI) binding to the rat amylin receptor
T1 construct: expressed in transfected cells; host or cells: BHK tk'ts 13 (transient, FuGENE 6), membranes
T1 sequence (P32214 25-479 isoform P32214-2 limits assumed): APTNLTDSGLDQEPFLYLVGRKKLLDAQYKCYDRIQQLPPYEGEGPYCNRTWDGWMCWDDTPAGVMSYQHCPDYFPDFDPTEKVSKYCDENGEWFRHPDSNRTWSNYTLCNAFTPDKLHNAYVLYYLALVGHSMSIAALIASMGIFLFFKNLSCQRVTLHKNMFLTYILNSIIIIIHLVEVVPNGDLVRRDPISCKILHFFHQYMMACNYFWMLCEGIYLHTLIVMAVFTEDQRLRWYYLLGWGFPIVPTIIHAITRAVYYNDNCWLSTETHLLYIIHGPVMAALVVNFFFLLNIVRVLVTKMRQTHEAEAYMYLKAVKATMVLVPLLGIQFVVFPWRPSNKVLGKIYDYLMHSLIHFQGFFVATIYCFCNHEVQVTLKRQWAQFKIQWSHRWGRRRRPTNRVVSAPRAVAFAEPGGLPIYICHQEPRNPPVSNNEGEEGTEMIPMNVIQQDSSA
T1 sequence (Q9JJ73 23-147 partner): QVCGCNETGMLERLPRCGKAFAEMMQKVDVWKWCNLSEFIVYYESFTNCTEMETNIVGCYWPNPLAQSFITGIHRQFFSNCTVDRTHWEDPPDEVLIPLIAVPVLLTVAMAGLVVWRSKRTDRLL
Method in brief: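 The cell-membrane assay assessed binding at the rat amylin receptor. BHK tk′ts 13 cells were transfected transiently with rat calcitonin receptor, with FuGENE® 6 (Roche) as the transfection reagent, used per the manufacturer's recommendations. Approximately 48 hours after transfection the cells were harvested, and membranes were prepared for measuring binding.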

[2] = target: T2, rat calcitonin receptor (Rattus norvegicus, UniProt P32214); assay: ASSAY (VIII) binding to the rat calcitonin receptor; conditions: Table 7, read-out: rCTR bind IC50
T2 construct: expressed in transfected cells; host or cells: BHK tk'ts 13 (transient, FuGENE 6), membranes
T2 sequence (P32214 25-479 isoform P32214-2 limits assumed): T1 sequence (P32214 25-479 isoform P32214-2 limits assumed)
Method in brief: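 Cell membranes for binding came from BHK tk′ts 13 cells harvested approximately 48 hours after transient transfection with the rat receptor.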

[3] = Table 7, binding to rat amylin receptor, read-out: rAmylin-R bind IC50
[4] = Table 7, rat binding selectivity, rCTR IC50 / rAmylin-R IC50
[5] = Table 7a (preferred compounds), rat binding selectivity, rCTR IC50 / rAmylin-R IC50
[6] = ratio of rCTR bind IC50 to rAmylin-R bind IC50

| Structure (SMILES) | IC50 [1, 3] [nM] | Ratio rCT/rAmylin binding [1, 4] | Ratio rCT/rAmylin binding [1, 5] | Ratio rCT/rAmylin binding [1, 6] | IC50 [2] [nM] | IC50 [1] [nM] |
| --- | --- | --- | --- | --- | --- | --- |
| CC[C@H](C)[C@H](NC(=O)[C@H](C)NC(=O)CNC(=O)[C@H](Cc1ccccc1)NC(=O)[C@H](CC(N)=O)NC(=O)[C@@H]1CCCN1C(=O)[C@H](CO)NC(=O)[C@H](CO)NC(=O)[C@H](Cc1c[nH]cn1)NC(=O)[C@H](CCCNC(=N)N)NC(=O)[C@H](CC(C)C)NC(=O)[C@H](Cc1ccccc1)NC(=O)[C@H](CC(N)=O)NC(=O)[C@H](C)NC(=O)[C@H](CC(C)C)NC(=O)[C@H](CCCNC(=N)N)NC(=O)[C@H](CCC(N)=O)NC(=O)[C@@H](NC(=O)[C@H](C)NC(=O)[C@@H]1CSSC[C@H](NC(=O)[C@@H](N)CCCCNC(=O)COCCOCCNC(=O)CC[C@H](NC(=O)CCCCCCCCCCCCCCCCCCC(=O)O)C(=O)O)C(=O)N[C@@H](CC(N)=O)C(=O)N[C@@H]([C@@H](C)O)C(=O)N[C@@H](C)C(=O)N[C@@H]([C@@H](C)O)C(=O)N1)[C@@H](C)O)C(=O)N1CCC[C@H]1C(=O)N[C@@H](CO)C(=O)N[C@@H](CO)C(=O)N[C@H](C(=O)N[C@@H](CC(N)=O)C(=O)N[C@H](C(=O)NCC(=O)N[C@@H](CO)C(=O)N[C@@H](CCC(=O)O)C(=O)N[C@H](C(=O)N[C@@H](Cc1ccc(O)cc1)C(N)=O)[C@@H](C)O)C(C)C)[C@@H](C)O [Example 26] (H-K([AEEA-γGlu-C20 diacid])CNTATCATQRLANFLRHSSPNFGAIPSSTNVGSETY-NH2; disulfide 2-7; N-terminus assumed) | 0.491 | 309.2 | 309.2 | 309.2 | 152 |  |
| CC[C@H](C)[C@H](NC(=O)[C@H](C)NC(=O)CNC(=O)[C@H](Cc1ccccc1)NC(=O)[C@H](CC(N)=O)NC(=O)[C@@H]1CCCN1C(=O)[C@H](CO)NC(=O)[C@H](CO)NC(=O)[C@H](Cc1c[nH]cn1)NC(=O)[C@H](CCCNC(=N)N)NC(=O)[C@H](CC(C)C)NC(=O)[C@H](Cc1ccccc1)NC(=O)[C@H](CC(N)=O)NC(=O)[C@H](C)NC(=O)[C@H](CC(C)C)NC(=O)[C@H](CCCNC(=N)N)NC(=O)[C@H](CCC(N)=O)NC(=O)[C@@H](NC(=O)[C@H](C)NC(=O)[C@@H]1CSSC[C@H](NC(=O)[C@@H](N)CCCCNC(=O)CC[C@H](NC(=O)CCCCCCCCCCCCCCCCCCC(=O)O)C(=O)O)C(=O)N[C@@H](CC(N)=O)C(=O)N[C@@H]([C@@H](C)O)C(=O)N[C@@H](C)C(=O)N[C@@H]([C@@H](C)O)C(=O)N1)[C@@H](C)O)C(=O)N1CCC[C@H]1C(=O)N[C@@H](CO)C(=O)N[C@@H](CO)C(=O)N[C@H](C(=O)N[C@@H](CC(N)=O)C(=O)N[C@H](C(=O)NCC(=O)N[C@@H](CO)C(=O)N[C@@H](CCC(=O)O)C(=O)N[C@H](C(=O)N[C@@H](Cc1ccc(O)cc1)C(N)=O)[C@@H](C)O)C(C)C)[C@@H](C)O [Example 27] | 0.614 | 146.8 | 146.8 | 146.8 | 90.2 |  |
| CC[C@H](C)[C@H](NC(=O)[C@H](C)NC(=O)CNC(=O)[C@H](Cc1ccccc1)NC(=O)[C@H](CC(N)=O)NC(=O)[C@@H]1CCCN1C(=O)[C@H](CO)NC(=O)[C@H](CO)NC(=O)[C@H](Cc1c[nH]cn1)NC(=O)[C@H](CCCNC(=N)N)NC(=O)[C@H](CC(C)C)NC(=O)[C@H](Cc1ccccc1)NC(=O)[C@H](CCCCN)NC(=O)[C@H](C)NC(=O)[C@H](CC(C)C)NC(=O)[C@H](CCCNC(=N)N)NC(=O)[C@H](CCC(N)=O)NC(=O)[C@@H](NC(=O)[C@H](C)NC(=O)[C@@H]1CSSC[C@H](NC(=O)[C@@H](N)CCCCNC(=O)COCCOCCNC(=O)CC[C@H](NC(=O)CCCCCCCCCCCCCCCCCCC(=O)O)C(=O)O)C(=O)N[C@@H](CC(N)=O)C(=O)N[C@@H]([C@@H](C)O)C(=O)N[C@@H](C)C(=O)N[C@@H]([C@@H](C)O)C(=O)N1)[C@@H](C)O)C(=O)N1CCC[C@H]1C(=O)N[C@@H](CO)C(=O)N[C@@H](CO)C(=O)N[C@H](C(=O)N1CCC[C@H]1C(=O)N[C@H](C(=O)NCC(=O)N[C@@H](CO)C(=O)N[C@@H](CC(N)=O)C(=O)N[C@H](C(=O)N[C@@H](Cc1ccc(O)cc1)C(N)=O)[C@@H](C)O)C(C)C)[C@@H](C)O [Example 74] (H-K([AEEA-γGlu-C20 diacid])CNTATCATQRLAKFLRHSSPNFGAIPSSTPVGSNTY-NH2; disulfide 2-7; N-terminus assumed) |  | 22.3 | 22.3 | 22.3 | 109 | 4.89 |

The remaining compounds from weak to strong by IC50 [1, 3], led by results:

| IC50 [1, 3] [nM] | Ratio rCT/rAmylin binding [1, 4] | Ratio rCT/rAmylin binding [1, 5] | Ratio rCT/rAmylin binding [1, 6] | IC50 [2] [nM] | Structure (SMILES) | IC50 [1] [nM] |
| --- | --- | --- | --- | --- | --- | --- |
| 2.29 | 12.6 | 12.6 |  | 28.9 | CC[C@H](C)[C@H](NC(=O)[C@H](C)NC(=O)CNC(=O)[C@H](Cc1ccccc1)NC(=O)[C@H](CC(N)=O)NC(=O)[C@@H]1CCCN1C(=O)[C@H](CO)NC(=O)[C@H](CO)NC(=O)[C@H](Cc1c[nH]cn1)NC(=O)[C@H](CCCNC(=N)N)NC(=O)[C@H](CC(C)C)NC(=O)[C@H](Cc1ccccc1)NC(=O)[C@H](CCC(=O)O)NC(=O)[C@H](C)NC(=O)[C@H](CC(C)C)NC(=O)[C@H](CCCNC(=N)N)NC(=O)[C@H](CCC(N)=O)NC(=O)[C@@H](NC(=O)[C@H](C)NC(=O)[C@@H]1CSSC[C@H](NC(=O)[C@H](CCCCN)NC(=O)CC[C@H](NC(=O)CCCCCCCCCCCCCCCCCCC(=O)O)C(=O)O)C(=O)N[C@@H](CC(N)=O)C(=O)N[C@@H]([C@@H](C)O)C(=O)N[C@@H](C)C(=O)N[C@@H]([C@@H](C)O)C(=O)N1)[C@@H](C)O)C(=O)N[C@@H](CC(C)C)C(=O)N1CCC[C@H]1C(=O)N[C@@H](CO)C(=O)N[C@H](C(=O)N[C@@H](CC(N)=O)C(=O)N[C@H](C(=O)NCC(=O)N[C@@H](CO)C(=O)N[C@@H](CCC(=O)O)C(=O)N[C@H](C(=O)N[C@@H](Cc1ccc(O)cc1)C(N)=O)[C@@H](C)O)C(C)C)[C@@H](C)O [Example 33] ({C20 diacid-γGlu}-KCNTATCATQRLAEFLRHSSPNFGAILPSTNVGSETY-NH2; disulfide 2-7) |  |
| 0.514 | 14.3 | 14.3 |  | 7.35 | CC[C@H](C)[C@H](NC(=O)[C@H](C)NC(=O)CNC(=O)[C@H](Cc1ccccc1)NC(=O)[C@H](CC(N)=O)NC(=O)[C@@H]1CCCN1C(=O)[C@H](CO)NC(=O)[C@H](CO)NC(=O)[C@H](Cc1c[nH]cn1)NC(=O)[C@H](CCCNC(=N)N)NC(=O)[C@H](CC(C)C)NC(=O)[C@H](Cc1ccccc1)NC(=O)[C@H](CCC(=O)O)NC(=O)[C@H](C)NC(=O)[C@H](CC(C)C)NC(=O)[C@H](CCCNC(=N)N)NC(=O)[C@H](CCC(N)=O)NC(=O)[C@@H](NC(=O)[C@H](C)NC(=O)[C@@H]1CSSC[C@H](NC(=O)[C@H](CCCCN)NC(=O)CC[C@H](NC(=O)CCCCCCCCCCCCCCCCCCC(=O)O)C(=O)O)C(=O)N[C@@H](CC(N)=O)C(=O)N[C@@H]([C@@H](C)O)C(=O)N[C@@H](C)C(=O)N[C@@H]([C@@H](C)O)C(=O)N1)[C@@H](C)O)C(=O)N1CCC[C@H]1C(=O)N[C@@H](CO)C(=O)N1CCC[C@H]1C(=O)N[C@H](C(=O)N[C@@H](CC(N)=O)C(=O)N[C@H](C(=O)NCC(=O)N[C@@H](CO)C(=O)N[C@@H](CC(N)=O)C(=O)N[C@H](C(=O)N[C@@H](Cc1ccc(O)cc1)C(N)=O)[C@@H](C)O)C(C)C)[C@@H](C)O [Example 37] ({C20 diacid-γGlu}-KCNTATCATQRLAEFLRHSSPNFGAIPSPTNVGSNTY-NH2; disulfide 2-7 (inferred)) |  |

Reference: patent US9023789B2, “Amylin analogs and pharmaceutical compositions thereof” (Novo Nordisk A/S, priority 2012, dated 2015)
